“And” between values parts separate entries of the source, which are not always exact repeats. Equal entries are not always repeated.
Experiments:
primary AML specimens = assay: Viability of primary AML specimens, Annexin V/7-AAD flow cytometry; assay type: cell-based, human
Protocol: The cells were isolated and processed as described. […] All drug treatments were performed in triplicate. […] Total viable cell numbers were determined using a flow cytometric apoptosis assay as described. Briefly, after 18 h of treatment, specimens were labeled with anti-CD34-PE (Becton Dickinson, San Jose, Calif.) for 20 minutes. […] The total number of events collected was 100,000. The percent viable cells was defined as AnnexinV^neg/7-AAD^neg cells on total (ungated) cells and on gates set for CD34^+ populations. • [1] Jordan, C. T., et al., The interleukin-3 receptor alpha chain is a unique marker for human acute myelogenous leukemia stem cells. Leukemia, 2000. 14(10): p. […] Lansdorp, P. M. and W. Dragowska, Long-term erythropoiesis from constant numbers of CD34+ cells in serum-free cultures initiated with highly purified progenitor cells from human bone marrow. […] Guzman, M. L., et al., Nuclear factor-kappaB is constitutively activated in primitive human acute myelogenous leukemia cells. […] 98(8): p.

primary CLL specimens = assay: Viability of primary CLL specimens, Annexin V/7-AAD; assay type: cell-based; settings: Homo sapiens, 24 h; read-out: mean viability relative to untreated controls
primary ALL specimens = assay: Viability of primary ALL specimens, Annexin V/7-AAD; assay type: cell-based; settings: Homo sapiens, 24 h; read-out: mean viability relative to untreated controls
CD34+CD10− ALL cells = assay: Viability of CD34+CD10− cells from ALL specimens; assay type: cell-based; settings: Homo sapiens, 24 h
[1] = system: normal specimens (BM or CB); assay: Membrane integrity by YoPro-1 uptake, normal specimens; assay type: cell-based, human; settings: 20 μM TDZD-8 for 15 min
Protocol: C. […] Cells were then washed with PBS and stained to assess membrane permeability using annexin V-Allophycocyanin (APC) and the vital dyes: Yo-[…] (0.1 uM), Hoescht 33342 (2.5 ug/ml), and Propidium Iodide (0.5 ug/ml) (Molecular Probes).

[2] = system: phospho-FLT3 in CD34+ AML cells; assay: Phospho-FLT3 flow cytometry, CD34+ population of primary AML; assay type: cell-based, human; settings: 30 minutes after addition of drug
GSK3B (GSK3 beta) = GSK3B (GSK3 beta) (Homo sapiens, UniProt P49841); assay: Kinase assay (single point and titration); assay type: biochemical; settings: TDZD-8 20 μM
FLT3 = FLT3 (Homo sapiens, UniProt P36888); assay: Kinase assay (single point and titration); assay type: biochemical
Protocol: (§1) Kinase Assays: Single point and titration assays are performed using protocols (or essentially using protocols) know in the art for kinase activity profiling against a battery of kinase targets, including, for example, those specifically delineated herein. Such assays include, for example, those available from commercial sources, contract research laboratories, and the like.

PRKCB1 (PKC beta I) = PRKCB1 (PKC beta I) (Homo sapiens, UniProt P05771); assay: Kinase assay (single point and titration); assay type: biochemical
Protocol: as §1

PRKCD (PKC delta) = PRKCD (PKC delta) (Homo sapiens, UniProt Q05655); assay: Kinase assay (single point and titration); assay type: biochemical
Protocol: as §1

PRKCI (PKC iota) = PRKCI (PKC iota) (Homo sapiens, UniProt P41743); assay: Kinase assay (single point and titration); assay type: biochemical
Protocol: as §1

CSNK2A1 (CK2 alpha 1) = CSNK2A1 (CK2 alpha 1) (Homo sapiens, UniProt P68400); assay: Kinase assay; assay type: biochemical
Protocol: as §1

EGFR (ErbB1) = EGFR (ErbB1) (Homo sapiens, UniProt P00533); assay: Kinase assay; assay type: biochemical
Protocol: as §1

INSR = INSR (Homo sapiens, UniProt P06213); assay: Kinase assay; assay type: biochemical
Protocol: as §1

IRAK4 = IRAK4 (Homo sapiens, UniProt Q9NWZ3); assay: Kinase assay; assay type: biochemical
Protocol: as §1

JAK3 = JAK3 (Homo sapiens, UniProt P52333); assay: Kinase assay; assay type: biochemical
Protocol: as §1

Jak2 = Jak2 (Homo sapiens, UniProt O60674); assay: Kinase assay; assay type: biochemical; settings: TDZD-8 20 μM
Protocol: as §1

KIT = KIT (Homo sapiens, UniProt P10721); assay: Kinase assay; assay type: biochemical
Protocol: as §1

MAP4K4 (HGK) = MAP4K4 (HGK) (Homo sapiens, UniProt O95819); assay: Kinase assay; assay type: biochemical
Protocol: as §1

MAPKAPK2 = MAPKAPK2 (Homo sapiens, UniProt P49137); assay: Kinase assay; assay type: biochemical
Protocol: as §1

NTRK1 (TRKA) = NTRK1 (TRKA) (Homo sapiens, UniProt P04629); assay: Kinase assay; assay type: biochemical
Protocol: as §1

PRKCG (PKC gamma) = PRKCG (PKC gamma) (Homo sapiens, UniProt P05129); assay: Kinase assay; assay type: biochemical
Protocol: as §1

PRKCH (PKC eta) = PRKCH (PKC eta) (Homo sapiens, UniProt P24723); assay: Kinase assay; assay type: biochemical
Protocol: as §1

PRKCN (PKD3) = PRKCN (PKD3) (Homo sapiens, UniProt O94806); assay: Kinase assay; assay type: biochemical
Protocol: as §1

PRKD1 (PKC mu) = PRKD1 (PKC mu) (Homo sapiens, UniProt Q15139); assay: Kinase assay; assay type: biochemical
Protocol: as §1

RET = RET (Homo sapiens, UniProt P07949); assay: Kinase assay; assay type: biochemical
Protocol: as §1

SRC = SRC (Homo sapiens, UniProt P12931); assay: Kinase assay; assay type: biochemical
Protocol: as §1

STK6 (Aurora A) = STK6 (Aurora A) (Homo sapiens, UniProt O14965); assay: Kinase assay; assay type: biochemical
Protocol: as §1

CDK1/cyclin B = CDK1/cyclin B (Homo sapiens, UniProt P06493); settings: reported; cited from earlier work
PKC = settings: reported; cited from earlier work
[3] = titration, read-out: in vitro IC50

Chain of PRKCB1 (PKC beta I) (P05771 whole entry): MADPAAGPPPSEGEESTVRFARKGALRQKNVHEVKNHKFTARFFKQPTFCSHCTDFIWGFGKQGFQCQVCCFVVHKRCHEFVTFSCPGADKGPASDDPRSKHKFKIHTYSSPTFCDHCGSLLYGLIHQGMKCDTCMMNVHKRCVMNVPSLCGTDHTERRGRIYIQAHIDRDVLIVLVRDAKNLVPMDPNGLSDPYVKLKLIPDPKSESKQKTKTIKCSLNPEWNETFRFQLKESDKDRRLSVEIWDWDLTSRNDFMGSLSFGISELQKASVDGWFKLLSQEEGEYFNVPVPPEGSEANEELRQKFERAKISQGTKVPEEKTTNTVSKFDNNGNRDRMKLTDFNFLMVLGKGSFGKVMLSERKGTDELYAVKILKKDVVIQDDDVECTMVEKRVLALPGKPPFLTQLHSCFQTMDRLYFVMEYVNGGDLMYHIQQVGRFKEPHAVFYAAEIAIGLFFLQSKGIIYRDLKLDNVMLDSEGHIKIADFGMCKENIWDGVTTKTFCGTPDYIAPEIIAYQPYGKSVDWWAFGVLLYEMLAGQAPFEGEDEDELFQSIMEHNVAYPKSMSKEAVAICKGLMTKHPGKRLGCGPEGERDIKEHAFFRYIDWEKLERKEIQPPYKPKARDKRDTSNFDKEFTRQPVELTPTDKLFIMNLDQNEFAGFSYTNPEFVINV
Chain of FLT3 (P36888 27-993): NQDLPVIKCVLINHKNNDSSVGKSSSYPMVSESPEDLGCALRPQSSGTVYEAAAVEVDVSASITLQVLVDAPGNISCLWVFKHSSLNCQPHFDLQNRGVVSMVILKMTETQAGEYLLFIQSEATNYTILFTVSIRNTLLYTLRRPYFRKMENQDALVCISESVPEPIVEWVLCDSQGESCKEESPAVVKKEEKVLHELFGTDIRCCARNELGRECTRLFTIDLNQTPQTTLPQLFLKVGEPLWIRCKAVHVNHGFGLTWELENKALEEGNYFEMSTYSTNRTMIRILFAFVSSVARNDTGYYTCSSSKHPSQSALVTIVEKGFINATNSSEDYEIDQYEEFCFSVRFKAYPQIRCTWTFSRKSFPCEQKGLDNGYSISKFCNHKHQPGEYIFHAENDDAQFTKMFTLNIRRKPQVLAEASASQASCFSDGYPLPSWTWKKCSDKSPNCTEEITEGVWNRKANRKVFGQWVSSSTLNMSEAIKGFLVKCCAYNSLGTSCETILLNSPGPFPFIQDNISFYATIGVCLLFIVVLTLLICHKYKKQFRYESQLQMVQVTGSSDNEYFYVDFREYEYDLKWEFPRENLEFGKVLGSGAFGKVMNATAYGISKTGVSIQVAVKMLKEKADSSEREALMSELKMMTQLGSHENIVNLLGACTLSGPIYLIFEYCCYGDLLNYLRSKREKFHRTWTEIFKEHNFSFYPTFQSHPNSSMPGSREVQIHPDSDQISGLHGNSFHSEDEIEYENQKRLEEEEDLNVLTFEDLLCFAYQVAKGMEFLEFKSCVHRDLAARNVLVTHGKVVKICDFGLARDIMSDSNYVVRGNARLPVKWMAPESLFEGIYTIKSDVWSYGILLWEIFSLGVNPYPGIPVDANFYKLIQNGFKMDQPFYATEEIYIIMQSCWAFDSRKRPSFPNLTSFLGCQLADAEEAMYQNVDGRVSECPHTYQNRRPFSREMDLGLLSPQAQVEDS
Chain of KIT (P10721 26-976): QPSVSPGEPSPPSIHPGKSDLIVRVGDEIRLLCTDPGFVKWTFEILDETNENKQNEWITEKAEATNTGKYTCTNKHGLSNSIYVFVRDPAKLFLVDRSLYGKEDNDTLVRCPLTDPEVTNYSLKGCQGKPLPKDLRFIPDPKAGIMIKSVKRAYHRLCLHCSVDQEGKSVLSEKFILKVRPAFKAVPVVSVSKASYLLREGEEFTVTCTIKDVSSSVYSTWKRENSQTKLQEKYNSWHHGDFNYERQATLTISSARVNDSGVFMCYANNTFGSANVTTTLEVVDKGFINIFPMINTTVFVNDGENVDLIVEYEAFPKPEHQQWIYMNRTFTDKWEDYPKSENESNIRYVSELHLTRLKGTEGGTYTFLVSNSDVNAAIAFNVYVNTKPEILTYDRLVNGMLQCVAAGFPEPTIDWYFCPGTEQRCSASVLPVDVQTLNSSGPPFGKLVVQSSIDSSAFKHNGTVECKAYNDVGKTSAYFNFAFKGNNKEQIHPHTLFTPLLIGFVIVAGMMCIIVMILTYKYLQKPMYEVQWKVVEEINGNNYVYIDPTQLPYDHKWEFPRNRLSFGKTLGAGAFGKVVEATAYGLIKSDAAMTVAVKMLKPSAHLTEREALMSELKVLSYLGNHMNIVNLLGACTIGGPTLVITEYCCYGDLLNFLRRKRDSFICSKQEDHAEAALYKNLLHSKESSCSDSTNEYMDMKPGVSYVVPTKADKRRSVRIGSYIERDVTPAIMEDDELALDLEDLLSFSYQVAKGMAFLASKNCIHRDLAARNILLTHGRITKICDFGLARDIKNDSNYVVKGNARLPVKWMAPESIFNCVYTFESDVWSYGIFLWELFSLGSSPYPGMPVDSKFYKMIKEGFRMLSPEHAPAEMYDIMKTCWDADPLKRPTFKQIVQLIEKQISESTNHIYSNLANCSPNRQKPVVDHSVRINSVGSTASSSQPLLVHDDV
Chain of SRC (P12931 whole entry, species assumed): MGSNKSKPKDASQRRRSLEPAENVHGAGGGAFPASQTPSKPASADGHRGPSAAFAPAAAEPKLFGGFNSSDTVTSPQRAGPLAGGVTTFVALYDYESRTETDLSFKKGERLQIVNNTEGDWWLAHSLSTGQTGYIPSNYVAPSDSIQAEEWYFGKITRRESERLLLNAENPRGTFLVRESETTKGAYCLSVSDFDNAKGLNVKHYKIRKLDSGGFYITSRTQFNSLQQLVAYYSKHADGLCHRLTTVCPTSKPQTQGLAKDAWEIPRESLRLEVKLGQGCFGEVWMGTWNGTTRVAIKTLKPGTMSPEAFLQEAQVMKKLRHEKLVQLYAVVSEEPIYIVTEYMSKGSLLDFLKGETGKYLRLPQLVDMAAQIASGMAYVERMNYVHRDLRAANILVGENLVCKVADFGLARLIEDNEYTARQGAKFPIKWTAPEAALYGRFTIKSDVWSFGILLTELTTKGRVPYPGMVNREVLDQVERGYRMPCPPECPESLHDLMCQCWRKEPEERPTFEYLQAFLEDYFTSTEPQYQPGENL
Chain of GSK3B (GSK3 beta) (P49841 whole entry): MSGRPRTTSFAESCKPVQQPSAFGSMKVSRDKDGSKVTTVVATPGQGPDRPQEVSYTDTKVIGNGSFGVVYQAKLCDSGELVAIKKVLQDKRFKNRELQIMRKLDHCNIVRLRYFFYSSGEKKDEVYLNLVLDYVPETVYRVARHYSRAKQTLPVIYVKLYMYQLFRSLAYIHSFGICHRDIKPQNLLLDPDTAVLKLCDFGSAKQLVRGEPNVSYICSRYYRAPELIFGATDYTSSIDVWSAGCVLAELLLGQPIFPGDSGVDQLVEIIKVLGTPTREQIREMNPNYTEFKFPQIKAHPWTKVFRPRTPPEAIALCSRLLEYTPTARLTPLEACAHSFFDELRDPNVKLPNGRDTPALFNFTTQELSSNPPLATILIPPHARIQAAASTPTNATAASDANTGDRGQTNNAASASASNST
Chain of PRKCD (PKC delta) (Q05655 whole entry): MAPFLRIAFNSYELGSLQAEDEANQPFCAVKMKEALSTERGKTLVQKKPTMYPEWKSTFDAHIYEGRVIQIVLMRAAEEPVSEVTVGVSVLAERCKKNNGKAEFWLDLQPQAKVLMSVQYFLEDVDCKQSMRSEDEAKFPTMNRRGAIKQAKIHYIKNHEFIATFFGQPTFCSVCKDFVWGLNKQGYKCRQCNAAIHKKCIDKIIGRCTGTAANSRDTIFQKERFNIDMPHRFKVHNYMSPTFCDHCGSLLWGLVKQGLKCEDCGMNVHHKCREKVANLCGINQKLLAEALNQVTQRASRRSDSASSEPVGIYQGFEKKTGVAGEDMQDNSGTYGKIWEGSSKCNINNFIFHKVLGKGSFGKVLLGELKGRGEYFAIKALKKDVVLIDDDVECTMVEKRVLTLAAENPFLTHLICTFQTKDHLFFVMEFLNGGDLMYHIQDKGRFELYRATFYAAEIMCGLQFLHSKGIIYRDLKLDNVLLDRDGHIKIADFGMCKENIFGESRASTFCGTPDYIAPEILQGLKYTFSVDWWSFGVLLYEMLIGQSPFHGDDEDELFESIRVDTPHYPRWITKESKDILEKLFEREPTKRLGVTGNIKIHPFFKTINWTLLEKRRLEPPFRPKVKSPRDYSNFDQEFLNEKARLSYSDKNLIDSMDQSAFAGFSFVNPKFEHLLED
Chain of PRKCI (PKC iota) (P41743 whole entry): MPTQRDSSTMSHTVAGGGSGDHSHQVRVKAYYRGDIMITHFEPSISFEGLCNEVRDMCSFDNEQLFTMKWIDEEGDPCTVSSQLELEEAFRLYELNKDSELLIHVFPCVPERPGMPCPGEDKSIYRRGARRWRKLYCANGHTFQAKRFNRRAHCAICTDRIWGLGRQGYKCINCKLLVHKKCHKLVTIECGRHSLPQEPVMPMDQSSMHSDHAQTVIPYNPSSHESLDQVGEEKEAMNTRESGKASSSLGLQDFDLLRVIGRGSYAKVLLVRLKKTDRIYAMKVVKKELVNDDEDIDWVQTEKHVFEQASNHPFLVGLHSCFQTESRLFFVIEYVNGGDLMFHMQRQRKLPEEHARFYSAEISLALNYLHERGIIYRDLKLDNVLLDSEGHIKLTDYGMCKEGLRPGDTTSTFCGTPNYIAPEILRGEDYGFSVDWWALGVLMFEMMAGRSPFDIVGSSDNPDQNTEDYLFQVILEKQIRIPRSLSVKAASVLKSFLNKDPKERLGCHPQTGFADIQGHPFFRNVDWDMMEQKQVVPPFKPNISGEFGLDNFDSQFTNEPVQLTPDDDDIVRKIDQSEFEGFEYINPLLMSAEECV

## Cn1sc(=O)n(Cc2ccccc2)c1=O [TDZD-8, 4-benzyl-2-methyl-1,2,4-thiadiazolidine-3,5-dione]
Primary AML specimens; Homo sapiens, 24 h, read-out: mean viability relative to untreated controls
  viability at 20 µM: 15%
Primary AML specimens; additional preliminary data, not shown
  treatment time that may also be effective: ≤ 5 min
Primary AML specimens; bulk leukemia blast populations, 17 primary specimens
  mean time to achieve ≧50% cell death: 2 h
Primary AML specimens; cell death kinetics
  Rapid kinetics: Yes
Primary AML specimens; leukemia cells
  time within which most toxicity is evident: 1 to 6 h
Primary AML specimens; primary AML specimens
  Cytotoxic AML: Yes
Primary AML specimens; primary AML, bcCML, ALL and CLL specimens
  time of TDZD-8 exposure at which cell death was frequently evident: ≤ 2 h
Primary AML specimens; three of 17 specimens, within 30 minutes
  viability: below 30%
Primary CLL specimens
  viability at 20 µM: 7.2%
Primary ALL specimens
  viability at 20 µM: 12.4%
CD34+CD10− ALL cells
  viability at 20 µM: 22.3%
[1]
  rapid uptake of YoPro-1: not evident in normal specimens
[2]
  inhibition of FLT3 phosphorylation: ~30% and 31%
GSK3B (GSK3 beta)
  % Inhibition mean: 99%
  inhibition at 20 µM: 98%
FLT3
  inhibition at 20 µM: 99%
FLT3; titration curve, FIG. 13C, read-out: in vitro IC50
  IC50: 673 nM
PRKCB1 (PKC beta I)
  inhibition at 20 µM: 98%
PRKCB1 (PKC beta I); [3]
  IC50: 1400 nM
PRKCD (PKC delta)
  inhibition at 20 µM: 102%
PRKCD (PKC delta); [3]
  IC50: 1100 nM
PRKCI (PKC iota)
  inhibition at 20 µM: 100%
PRKCI (PKC iota); [3]
  IC50: 5500 nM
CSNK2A1 (CK2 alpha 1)
  inhibition at 20 µM: 27%
EGFR (ErbB1)
  inhibition at 20 µM: 1%
INSR
  inhibition at 20 µM: 9%
IRAK4
  inhibition at 20 µM: 8%
JAK3
  inhibition at 20 µM: -1%
Jak2
  inhibition: little to no inhibition
KIT
  inhibition at 20 µM: -6%
KIT; TDZD-8 20 μM
  % Inhibition mean: little to no inhibition
MAP4K4 (HGK)
  inhibition at 20 µM: 99%
MAPKAPK2
  inhibition at 20 µM: 99%
NTRK1 (TRKA)
  inhibition at 20 µM: -9%
PRKCG (PKC gamma)
  inhibition at 20 µM: 103%
PRKCH (PKC eta)
  inhibition at 20 µM: 104%
PRKCN (PKD3)
  inhibition at 20 µM: 94%
PRKD1 (PKC mu)
  inhibition at 20 µM: 97%
RET
  inhibition at 20 µM: 34%
SRC
  inhibition at 20 µM: 27%
SRC; TDZD-8 20 μM
  % Inhibition mean: little to no inhibition
STK6 (Aurora A)
  inhibition at 20 µM: 99%
CDK1/cyclin B
  IC50: > 100000 nM
PKC
  IC50: > 100000 nM

Reference: patent US9180118B2, “Thiadiazolidinone derivatives” (University of Rochester, priority 2006, dated 2015)
